Measurements: publication PMC3691639, “Aldose reductase from Schistosoma japonicum: crystallization and structure-based inhibitor screening for discovering antischistosomal lead compounds” (Parasites & Vectors, 2013)

Molecular target: T1, recombinant Schistosoma japonicum aldose reductase (rSjAR; SjAR) (Schistosoma japonicum, UniProt Q5DD64)
T1 construct: gene Akr1b4; SjAR-pET28a plasmid, expressed in E. coli BL21(DE3)
T1 sequence (Q5DD64 1-310): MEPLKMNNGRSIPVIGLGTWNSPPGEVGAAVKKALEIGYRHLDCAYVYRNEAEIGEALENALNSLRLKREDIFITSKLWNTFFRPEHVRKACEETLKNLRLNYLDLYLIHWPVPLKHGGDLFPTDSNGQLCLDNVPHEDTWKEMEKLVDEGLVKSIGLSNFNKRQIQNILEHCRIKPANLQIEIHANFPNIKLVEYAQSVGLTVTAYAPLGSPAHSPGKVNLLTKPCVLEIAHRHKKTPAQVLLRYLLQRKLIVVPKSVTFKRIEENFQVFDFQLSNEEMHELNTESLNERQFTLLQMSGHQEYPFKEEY
Assay: NADPH depletion at […] nm, microplate
Assay type: biochemical

O=C1c2ccccc2C(=C2c3ccccc3C(=O)c3ccccc32)c2ccccc21 [AR9]
IC50: 30.6 µM
